# e = 2'-O-(2-methoxyethyl) (MOE); d = 2'-deoxy (DNA)
# How the values were obtained:
# mouse p38α mRNA = assay: Mouse p38α mRNA levels in bEND.3 cells, quantitative real-time PCR; format: cell-based; design: % Inhib. mouse p38α: concentration or dose not given beside the values; conditions: bEND.3 cells, mRNA by quantitative real-time PCR, average of two experiments
# From the text: (§1) Quantitation of p38α mRNA levels was accomplished by real-time quantitative PCR using the ABI PRISM™ 7600, 7700, or 7900 Sequence Detection System (PE-Applied Biosystems, Foster City, Calif.) according to manufacturer's instructions. This is a closed-tube, non-gel-based, fluorescence detection system which allows high-throughput quantitation of polymerase chain reaction (PCR) products in real-time. As opposed to standard PCR in which amplification products are quantitated after the PCR is completed, products in real-time quantitative PCR are quantitated as they accumulate. This is accomplished by including in the PCR reaction an oligonucleotide probe that anneals specifically between the forward and reverse PCR primers, and contains two fluorescent dyes. A reporter dye (e.g., FAM or JOE, obtained from either PE-Applied Biosystems, Foster City, Calif., Operon Technologies Inc., Alameda, Calif. or Integrated DNA Technologies Inc., Coralville, Iowa) is attached to the 5′ end of the probe and a quencher dye (e.g., TAMRA, obtained from either PE-Applied Biosystems, Foster City, Calif., Operon Technologies Inc., Alameda, Calif. or Integrated DNA Technologies Inc., Coralville, Iowa) is attached to the 3′ end of the probe. When the probe and dyes are intact, reporter dye emission is quenched by the proximity of the 3′ quencher dye. During amplification, annealing of the probe to the target sequence creates a substrate that can be cleaved by the 5′-exonuclease activity of Taq polymerase. […] With each cycle, additional reporter dye molecules are cleaved from their respective probes, and the fluorescence intensity is monitored at regular intervals by laser optics built into the ABI PRISM™ Sequence Detection System. In each assay, a series of parallel reactions containing serial dilutions of mRNA from untreated control samples generates a standard curve that is used to quantitate the percent inhibition after antisense oligonucleotide treatment of test samples.
# (§2) Prior to quantitative PCR analysis, primer-probe sets specific to the target gene being measured are evaluated for their ability to be “multiplexed” with a GAPDH amplification reaction. In multiplexing, both the target gene and the internal standard gene GAPDH are amplified concurrently in a single sample. In this analysis, mRNA isolated from untreated cells is serially diluted. Each dilution is amplified in the presence of primer-probe sets specific for GAPDH only, target gene only (“single-plexing”), or both (multiplexing). Following PCR amplification, standard curves of GAPDH and target mRNA signal as a function of dilution are generated from both the single-plexed and multiplexed samples. If both the slope and correlation coefficient of the GAPDH and target signals generated from the multiplexed samples fall within 10% of their corresponding values generated from the single-plexed samples, the primer-probe set specific for that target is deemed multiplexable. Other methods of PCR are also known in the art.
# (§3) PCR reagents were obtained from Invitrogen Corporation, (Carlsbad, Calif.). […] The RT reaction was carried out by incubation for 30 minutes at 48° C. Following a 10 minute incubation at 95° C. to activate the PLATINUM® Taq, 40 cycles of a two-step PCR protocol were carried out: 95° C. for 15 seconds (denaturation) followed by 60° C. for 1.5 minutes (annealing/extension).
# (§4) Gene target quantities obtained by real time RT-PCR are normalized using either the expression level of GAPDH, a gene whose expression is constant, or by quantifying total RNA using RiboGreen™ (Molecular Probes, Inc. Eugene, Oreg.). GAPDH expression is quantified by real time RT-PCR, by being run simultaneously with the target, multiplexing, or separately. Total RNA is quantified using RiboGreen™ RNA quantification reagent (Molecular Probes, Inc. Eugene, Oreg.). Methods of RNA quantification by RiboGreen™ are taught in Jones, L. J., et al, (Analytical Biochemistry, 1998, 265, 368-374). […]
# rat p38α mRNA = assay: Rat p38α mRNA levels in NR-8383 cells, quantitative real-time PCR; format: cell-based; conditions: 300 nM oligonucleotide with FuGENE 6, 24 hours, mRNA by quantitative real-time PCR, average of two experiments
# From the text: as §1, §2, §3, §4
Substance,% Inhib. mouse p38α (mouse p38α mRNA) [%],% Inhib. rat p38α (rat p38α mRNA) [%]
"320141 (antisense GCATGGCTGAGGGATAGCCT; sugars from the 5' end e5 d10 e5, all phosphorothioate, methylation of C not given here) [compound 320141]",83,73
"320142 (antisense GAGCCAGTTGGTTCTCTTGG; sugars from the 5' end e5 d10 e5, all phosphorothioate, methylation of C not given here) [compound 320142]",85,53
"320143 (antisense AGGCACAAACAGACTGACAG; sugars from the 5' end e5 d10 e5, all phosphorothioate, methylation of C not given here) [compound 320143]",88,54
"320144 (antisense CCTTTTAAGGCACAAACAGA; sugars from the 5' end e5 d10 e5, all phosphorothioate, methylation of C not given here) [compound 320144]",83,39
"320145 (antisense GACCTCTGCACTGAGGTGAA; sugars from the 5' end e5 d10 e5, all phosphorothioate, methylation of C not given here) [compound 320145]",52,44
"320146 (antisense GGCACTGGAGACCTCTGCAC; sugars from the 5' end e5 d10 e5, all phosphorothioate, methylation of C not given here) [compound 320146]",74,57
"320147 (antisense AGAGCACAGCATGCAAACAC; sugars from the 5' end e5 d10 e5, all phosphorothioate, methylation of C not given here) [compound 320147]",66,43
"320148 (antisense CCAGGGCTTCCAGAAGACAG; sugars from the 5' end e5 d10 e5, all phosphorothioate, methylation of C not given here) [compound 320148]",78,33
"320149 (antisense AAGGAGCTCCTGGCTTCAGG; sugars from the 5' end e5 d10 e5, all phosphorothioate, methylation of C not given here) [compound 320149]",74,25
"320150 (antisense GGATTCCTACAACATACAAA; sugars from the 5' end e5 d10 e5, all phosphorothioate, methylation of C not given here) [compound 320150]",82,62
"320151 (antisense GAAGGAACCACACTCTCTAA; sugars from the 5' end e5 d10 e5, all phosphorothioate, methylation of C not given here) [compound 320151]",90,47
"320152 (antisense TTTGCCCTTTCTCCCCATCA; sugars from the 5' end e5 d10 e5, all phosphorothioate, methylation of C not given here) [compound 320152]",93,66
"320153 (antisense AATATTAAAATAATTTGCCC; sugars from the 5' end e5 d10 e5, all phosphorothioate, methylation of C not given here) [compound 320153]",0,22
"320154 (antisense TCATGTTTATAAAGGTGAAA; sugars from the 5' end e5 d10 e5, all phosphorothioate, methylation of C not given here) [compound 320154]",52,50
"320155 (antisense CCCTGAGGATTCATGTTTAT; sugars from the 5' end e5 d10 e5, all phosphorothioate, methylation of C not given here) [compound 320155]",93,73
"320156 (antisense GGAATTGGCTTTACACTTTC; sugars from the 5' end e5 d10 e5, all phosphorothioate, methylation of C not given here) [compound 320156]",91,64
"320157 (antisense CGTCCAACACTGGAATTGGC; sugars from the 5' end e5 d10 e5, all phosphorothioate, methylation of C not given here) [compound 320157]",96,71
"320158 (antisense CCTTCTGGGCTCCAAATGAT; sugars from the 5' end e5 d10 e5, all phosphorothioate, methylation of C not given here) [compound 320158]",91,71
"320159 (antisense TCTGACATCCTATGGCATAC; sugars from the 5' end e5 d10 e5, all phosphorothioate, methylation of C not given here) [compound 320159]",94,69
"320160 (antisense GTTAATATGGTCTGTACCAG; sugars from the 5' end e5 d10 e5, all phosphorothioate, methylation of C not given here) [compound 320160]",53,43
"320161 (antisense GCTGAAGCTGGTTAATATGG; sugars from the 5' end e5 d10 e5, all phosphorothioate, methylation of C not given here) [compound 320161]",80,66
"320162 (antisense CGCATTATCTGCTGAAGCTG; sugars from the 5' end e5 d10 e5, all phosphorothioate, methylation of C not given here) [compound 320162]",92,62
"320163 (antisense TGTTAATGAGATAAGCAGGG; sugars from the 5' end e5 d10 e5, all phosphorothioate, methylation of C not given here) [compound 320163]",0,40
